Data on 3 compounds can be found in US20220168268A1, “SMALL-MOLECULE INHIBITOR OF PD-1/PD-L1, PHARMACEUTICAL COMPOSITION THEREOF WITH PD-L1 ANTIBODY, AND APPLICATION OF SAME” (Guangzhou Maxinovel Pharmaceuticals Co., Ltd., priority 2019, published 2022).

Molecules are shown by their SMILES. Several values for one entry are separate records, joined by “and”; a condition that tells them apart may be missing. Equal entries are not always repeated.

One series has as its target T1, PD-1/PD-L1 (Homo sapiens, UniProt Q9NZQ7).
T1 construct: unspecified kit tag (tag1 or tag2, recognised by the detection antibodies); purchased CisBio 64CUS000C-1
As to the kind of experiment: Homogeneous Time-Resolved Fluorescence (HTRF) PD-1/PD-L1 binding assay. The following applies: CisBio kit. How it is done: Homogenouse Time-Resolved Fluorescence (HTRF) binding assay was used to determine the binding activity of the compound of the present disclosure to PD-1/PD-L1.
The purchased kit (CisBio, #64CUS000C-1) contained the reagents required for experiments such as PD-1, PD-L1, anti-tagl-Eu, Anti-tag2-XL665, Dilute Buffer and Detection Buffer.
1. The compound was formulated to 10 concentrations with a three-fold concentration gradient with 100% DMSO.
2. The solution of the compound in DMSO was added to Dilute Buffer, and mixed evenly and then transferred to a 96-well plate.
3. PD-L1 was diluted with Dilute Buffer and added to the 96-well plate above.
4. PD-1 was diluted with Dilute Buffer, then added to the 96-well plate above and incubated at room temperature for 30 minutes.
5. One portion of anti-tag1-Eu and one portion of anti-tag2-XL665 were added to Detection Buffer, mixed evenly and transferred to the 96-well plate above.
6. The mixed solution in the 96-well plate were incubated at room temperature for 1 to 24 hours.
7. HTRF values were read by Envision.
A general note: In TR-FRET formats the signal depends on donor and acceptor labels being close together.

Series [1] is described as follows: Pharmacokinetic experiment in mice (iv and oral gavage). The conditions noted are these: mouse, whole blood; CD1 male mice; tail vein 2 mg/kg and oral gavage 10 mg/kg. It counts as in vivo. From the text:
Glipizide (molecular formula was C21H27N5O4S, molecular weight was 445.5 g/mol, Analytical Reagent) purchased from Sigma-Aldrich (U.S.A.), was used as the internal standard for analysis. Methanol, acetonitrile and formic acid (HPLC grade) were purchased from Sigma-Aldrich (U.S.A.), and pure water was purchased from Hangzhou Wahaha Group Co., Ltd. (Hangzhou, China). Other chemical reagents were all analytical reagents.
CD1 male mice, six per group, 6-7 weeks old, 29-31 g, were purchased from LC Laboratory Animal Co. LTD. Before the experiment, the animals should be kept for at least 3 days to adapt to the environment. Throughout the experiment, the animals were required to fast overnight, and allowed to drink water freely during the period, and the surviving animals resumed feeding 4 hours after administration.
1. The compound was formulated into a solution with a concentration of 0.4 mg/mL with 10% DMSO, 10% Solutol HS 15 and 80% Saline.
2. The above prepared solution was administered to 3 mice by tail vein injection (compound dosage was 2 mg/kg), and was administered to another 3 mice by oral gavage (compound dosage was 10 mg/kg) simultaneously.
3. Approximately 30 μL of blood was collected from each of the above 6 mice at 5 minutes, 15 minutes, 30 minutes, 1 hour, 2 hours, 4 hours, 8 hours and 24 hours after administration into the EDTA-K2 anticoagulation tube (set on wet ice), and 20 μL of blood was immediately diluted with 60 μL of water, and then put in the refrigerator at −70° C. for long-term storage until the sample was analyzed.
4. 20 μL of the above solution was transfered into a 96-well deep well sample plate, and 150 μL of glipizide internal standard acetonitrile solution (the concentration was 100 ng/mL) was added, vortexed for 10 min, and centrifuged at […] for 10 min 1 μL of the supernatant was taken for LCMSMS analysis.
5. Based on the drug concentration-time data, WinNonlin 6.4 software (USA) was used to calculate the pharmacokinetic parameters of the compound according to the non-compartment model.

Series [2] concerns colon cancer MC-38-hPD-L1. As to the kind of experiment: In vivo pharmacodynamics in hPD-1 knock-in mouse colon cancer MC-38-hPD-L1 model. On the set-up: species or system C57BL/6-hPD-1 mice. The following applies: PO, BID, D19; for Tumor Volume: mean ± SEM. How it is done: In vivo pharmacodynamics study of PD-L1 antibody Durvalumab and compound 29 used singly or in combination in hPD-1 knock-in mouse colon cancer MC-38-hPD-L1 model
Antibody: PD-L1 antibody Imfinzi (Durvalumab), 120 mg/2.4 mL (50 mg/mL), Lot: 041E17C. Manufacturer: AstraZeneca, purchased from Hong Kong Mingchuang Pharmacy Co., Ltd., stored at 2-8° C.
Experimental animals: Human PD-1 transgenic mice, strain: C57BL/6-hPD-1 mice, 6-8 weeks, weighing 18-21 grams, female, 120 mice, purchased from GemPharmatech Co., Ltd.
Human PD-L1 gene was knocked into MC-38 cells (MC-38-hPD-L1 cells), MC-38 cells was adherent cultured in vitro in DMEM medium with 10% heat-inactivated fetal bovine serum and hygromycinB (final concentration […]) at 37° C. under 5% CO2.
Passage cultivation was conducted three times a week. The cells were collected and counted at the exponential growth phase. 100 μL 1×10^6 MC-38-hPD-L1 cells suspension was inoculated into the right dorsal subcutaneous of C57BL/6-hPD-1 mice. 6 days after inoculation, 60 tumor-bearing mice with transplanted tumor volume ranging from 31.49 mm^3-110.26 mm^3 were selected, the mice were randomly divided into 6 groups, with 10 in each group, according to the experimental plan, and administration was started on the same day.
Preparation of vehicle: 800 mL sterile water was measured and added to volumertic flask. Magnetic stirring was carried out to produce vortex on the liquid surface. An aqueous solution of 10% (w/v) Cremophor RH40+20% (w/v) SBE-β-CD was obtained by slow addition of 100 g Cremophor RH40, followed by 200 g SBE-β-CD, and water to fix the solution volume to 1000 mL with fully stirring.
Preparation of Compound 29 suspension: 150.92 mg compound 29 was weighed and 12.5 […] 10% (w/v) Cremophor RH40+20% (w/v) SBE-β-CD (hereinafter referred to as vehicle) aqueous solution was added. A suspension was with a concentration of 12.0 mg/mL was obtained by fully mixing with vortexing for 2 minutes and ultrasonic treatment for 30 minutes. 5.0 mL of the suspension of compound 29 with a concentration of 12.0 mg/mL was pipetted, and 5.0 mL of vehicle was added to the suspension. The suspension with a concentration of 6.0 mg/mL was obtained by fully mixing with vortexing for 1 minute and ultrasonic treatment for 5 minutes. 2.0 mL of the suspension of compound 29 with a concentration of 12.0 mg/mL was pipetted, and 6.0 mL of vehicle was added to the suspension. The suspension with a concentration of 3.0 mg/mL was obtained by fully mixing with vortexing for 1 minute and ultrasonic treatment for 5 minutes. The suspension of compound 29 was prepared once a day.
Preparation of PD-L1 antibody: […] of Durvalumab stock solution (concentration: 50 mg/mL) was pipetted and divided into 6 portions in 5 mL sterile centrifuge tube, with 6.0 mg in each portion, then the portions were stored in a 4° C. refrigerator for late use. Before administration, 0.12 mL of stock solution (concentration: 50 mg/mL) was pipetted, 2.88 mL of 0.9% sodium chloride solution was added to the stock solution. 3 mL of the solution of Durvalumab with a final concentration 2 mg/mL was obtained by shaking slightly and fully vortexing.
1) The mice in the vehicle control group were weighed and recorded in an electronic balance according to the number. The mice in the vehicle control group were administered by oral gavage with vehicle according to the weight twice a day with a capacity of 0.1 mL/10 g. The time for administration was about 20 s for each mouse, and about 5 minutes in total for each group of 10 mice. 2) The mice in the compound 29 (30 mg/kg) group were weighed and recorded in an electronic balance according to the number. The mice in this group were administered by oral gavage with the prepared Compound 29 suspension according to the weight twice a day with a dosage of 30 mg/kg and a capacity of 0.1 mL/10 g. The time for administration was about 20 s for each mouse, and about 5 minutes in total for each group of 10 mice. […]

T1 sequence (Q9NZQ7 19-238 limits assumed): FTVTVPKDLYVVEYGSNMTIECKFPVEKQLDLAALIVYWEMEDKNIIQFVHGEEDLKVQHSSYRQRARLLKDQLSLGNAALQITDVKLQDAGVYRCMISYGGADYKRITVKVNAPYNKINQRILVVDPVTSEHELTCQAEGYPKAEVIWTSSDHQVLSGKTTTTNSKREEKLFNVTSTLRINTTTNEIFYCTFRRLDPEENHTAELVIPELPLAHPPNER

`Cc1c(/C=C/c2cc(CN[C@](C)(CO)C(=O)O)ccc2C(F)(F)F)cccc1-c1ccccc1` [Compound 27, (R,E)-2-(3-(2-(2-methylbiphenyl-3-yl)vinyl)-4-(trifluoromethyl)benzylamino)-3-hydroxy-2-methylpropanoic Acid]: the IC50 (commonly the concentration that inhibits the measured activity by half) on PD-1/PD-L1 turned out to be 0.018 µM. For the same compound, the bioavailability (commonly the share of a dose that reaches the circulation, judged against a reference dose that is usually intravenous) in series [1] was found to be 52.3%.

For the compound `Cc1c(/C=C/c2cc(CNC(CO)C(=O)O)ccc2C(F)(F)F)cccc1-c1ccccc1F` (stereo not drawn) [Compound 13, (E)-2-(3-(2-(2′-fluoro-2-methylbiphenyl-3-yl)vinyl)-4-(trifluoromethyl)benzylamino)-3-hydroxypropanoic Acid], the IC50 on PD-1/PD-L1 came out at 0.013 µM. The bioavailability in series [1] worked out at 16.1%.

Consider `Cc1c(/C=C/c2cc(CN[C@@](C)(CO)C(=O)O)ccc2C(F)(F)F)cccc1-c1ccccc1` [Compound 29, (S,E)-2-(3-(2-(2-methylbiphenyl-3-yl)vinyl)-4-(trifluoromethyl)benzylamino)-3-hydroxy-2-methylpropanoic Acid], for which the IC50 at PD-1/PD-L1 was determined as 0.019 µM. The “Tumor Volume” value in series [2] (30 mg/kg) is 459.82 ± 58.24/D19 mm^3; in series [2] (60 mg/kg) it was 439.04 ± 51.23/D19 mm^3; in series [2] (120 mg/kg) it was 325.23 ± 38.59/D19 mm^3. Besides, the “TGI (tumor inhibition rate)” value in series [2] (30 mg/kg, vs vehicle control) is 24.95/D19%; in series [2] (60 mg/kg, vs vehicle control), 29.06/D19%; in series [2] (120 mg/kg, vs vehicle control (max tumor inhibition rate of Compound 29)) it was 51.21% and 51.21/D19%. In addition, in series [1], the bioavailability turned out to be 38.2%.
